Reference: patent US9284252B2, “Use of jasmonate ester derivatives for treating benign hyperproliferative skin disorders” (SEPAL PHARMA LTD., priority 2009, dated 2016)
Values belong to the molecule of their own block, whether it stands above or below them.

Columns and labels:
[1] = test system: reconstituted three-dimensional human epidermis model (EPISKIN-Standard Model); assay: Skin irritation assay, reconstituted human epidermis model EPISKIN-SM; details: 15 minutes application, 42 hours post-incubation
[2] = test system: reconstituted three-dimensional human epidermis model (EpiDerm skin model); assay: Skin corrosion assay, EpiDerm skin model; format: cell-based
Description: In particular, MJ was applied topically to the EpiDerm™ tissue and incubated for 3 and 60 minutes at each time. After the incubation period, tissue viability was assessed via MTT reduction assay.

[3] = test system: UVB-damaged skin in SKH-1 mice; assay: Skin lesion formation induced by UVB, damaged skin mouse model of actinic keratosis; format: in vivo
Text: The efficacy of Compound C was further evaluated in an animal model of Actinic Keratosis (AK). The purpose of the study was to determine the effect of compound C against lesion formation in UVB-damaged skin in SKH-1 mice, a mouse model of AK and non-melanoma skin cancers.
The study was divided to two parts: pre-study that included UVB irradiation to induce the damage to the skin, and efficacy study that included the treatment with Compound C compared to standard treatment and efficacy evaluation. After 16 weeks of UVB irradiation, 60% of the animals developed lesions, and treatment was started on week 17 and continued for 7.5 weeks. The total duration of the study was 23.5 weeks.
The study included female mice, 6-8 weeks of age at study initiation. After 16 weeks of UVB irradiation, when 60% (36/60) of the animals developed at least 1 lesion, mice were randomly stratified into 12 mice per group (see Table 4) according to score and number of lesions. Picato gel (Ingenol mebutate, Leo Pharma Inc.) was used as the positive control.
For UVB irradiation, Vilber-Lourmat (France) Lamp VL-6.M was used, irradiating at 312 nm with an intensity of 0.89 mW/cm^2 at a distance of 15 cm. Determination of UVB irradiation Minimal Erythemal Dose (MED) was performed prior to the beginning of the study (during the pre-study period). Animals were UVB irradiated during different time periods (starting at 30 sec) and the presence of erythema was recorded 24 and 48 hours later.
Observations for clinical scoring and signs of erythema and edema, were performed twice a week. Erythema and edema scoring were performed according to the grading levels described in Table 5 below. Lesion numbers were determined once a week during Weeks 4-6 and twice a week during Weeks 7-16 until treatment started. During treatment, lesion number and erythema-edema scores were performed twice a week.

[4] = test system: actinic keratosis (AK) cell line HT297.T; assay: XTT proliferation assay in actinic keratosis cell line; format: cell-based; details: 72 h, 3 days treatment, HT297.T cells
Description: IC50 values were calculated from the mean of triplicate wells for each experiment. […]

[5] = format: in vitro ADME; details: human
[6] = test system: lymphomas in mice; details: cited from earlier work
[7] = test system: metastatic melanoma cells; details: cited from earlier work
[8] = test system: reconstituted three-dimensional human epidermis model (EPISKIN-Standard Model)
[9] = test system: malignant keratinocytes A431 cell line; details: cited from earlier work
[10] = test system: cervical cancer cell lines; details: range of cervical cancer cell lines; cited from earlier work

Compound: CCCCCCCCCCCCOS(=O)(=O)[O-].[Na+] [5% SDS solution]
Mean relative tissue viability (%) (MTT reduction) [1]: 3.3 ± 0.6%
IL-1α release ([1]; tissue culture medium): 236.7 ± 23.0 pg/mL

Compound: [K+].[OH-] [8N KOH]
Mean relative tissue viability (%) (MTT reduction) after 3 minutes ([2]; 3 minutes treatment): 26 ± 5.3%
Mean relative tissue viability (%) (MTT reduction) after 60 minutes ([2]; 60 minutes treatment): 14 ± 3.7%

IC50 [4]: 0.25 µM
Compound: CC/C=C\CC1C(=O)CCC1CC(=O)Oc1cccc2cccnc12 (stereo not shown) [Compound C]
maximal reduction in lesion number on Day 50 ([3]; Compound C 2.5% topical, group 3F): 65%
maximal reduction in lesion number on Day 50 ([3]; Compound C 40% topical, group 5F): 72%
maximal reduction in lesion number on Day 50 ([3]; group 4F (5% topical per Table 4)): 70%
histopathology evaluation of skin ([3]; groups treated with compound C): look similar to naïve (healthy) animals
gross pathology examination ([3]; mouse, in vivo): No abnormality was detected
skin erythema or edema following topical treatment ([3]; mouse, in vivo): no skin erythema or edema
reduction in total area of lesions and total tumor area ([3]; topical, concentration not given): 70%

local intra-skin concentrations [5]: ~1 M
IC50 [4]: 21.1 µM
Compound: CC/C=C\CC1C(=O)CCC1CC(=O)OC (stereo not shown) [MJ, methyl jasmonate]
prevention of development of lymphomas [6]: effective
cell motility [7]: suppresses cell motility
development of lung metastases [7]: inhibits the development of lung metastases
irritation classification according to ECVAM SIVS recommendations [8]: non-irritant
toxicity on A431 cell line [9]: low toxicity
cytotoxicity [10]: cytotoxic
corrosion classification according to OECD Guideline and EC Commission Regulation [2]: non-corrosive

Compound: CC/C=C\C[C@H]1C(=O)CC[C@@H]1CC(=O)O [jasmonic acid]
toxicity on A431 cell line [9]: low toxicity
